Entries after “also recorded” stand apart in the source; their conditions may differ.
Assays:
[1] = target: T1, mAtDHQS1 (Arabidopsis thaliana, UniProt Q8VYV7); test: MicroScale Thermophoresis (MST) binding and competition
T1 construct: The mature i.e. biologically relevant enzyme (mAtDHQS1) with 381 amino acids; (His)6 (C); made in house; host or cells: E. coli
T1 sequence (Q8VYV7 59-442): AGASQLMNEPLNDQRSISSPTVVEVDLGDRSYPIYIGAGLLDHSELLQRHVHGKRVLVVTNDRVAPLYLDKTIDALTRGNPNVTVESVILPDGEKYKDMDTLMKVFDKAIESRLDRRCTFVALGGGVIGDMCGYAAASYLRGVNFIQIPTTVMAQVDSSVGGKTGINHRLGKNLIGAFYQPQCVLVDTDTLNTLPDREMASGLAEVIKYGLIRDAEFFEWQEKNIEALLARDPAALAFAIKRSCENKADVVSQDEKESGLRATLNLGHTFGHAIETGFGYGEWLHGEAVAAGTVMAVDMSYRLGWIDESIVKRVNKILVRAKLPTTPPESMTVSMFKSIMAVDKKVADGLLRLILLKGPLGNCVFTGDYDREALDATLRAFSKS
Experimental: (§1) (A) Schematic representation of mDHSQ1 and pDHQS1 both containing a C-terminal (His)6 tag for purification after heterologous expression of the recombinant proteins in E.coli. aa: amino acid. (B) Relative activity of mDHQS1 (left) and pDHQS1 (right) in the presence of the indicated concentrations of 7dSh. The activity in the absence of 7dSh was set to 1. […] (A) MST fluorescence spectrum of RED dye-labelled mAtDHQS1 (50 nM) in the absence of DAHP (blue line, marked as line 1) or in the presence of 500 µM DAHP (green line, marked as line 2). […] (B) MST fluorescence spectrum of RED dye-labelled mAtDHQS1 (50 nM) in the absence of 7dSh (blue line marked as line 1) or in the presence of 500 µM 7dSh (green line marked as line 2). No downward shift is detectable, showing that there is no binding. (C) MST fluorescence spectrum of RED dye-labelled mAtDHQS1 (50 nM) in the absence of 7dSh and DAHP (blue line, marked as line 1), in the presence of 250 µM DAHP (green line marked as line 2) or 250 µM DAHP and 250 µM 7dSh (red line marked as line 3). […] (A) Growth of 3-days-old wild type plants (Col-0) or two independent transgenic lines each ectopically overexpressing either EGFP-tagged AtDHQS1 (1-1, 1-2) or EGFP-tagged AtDHQS2 (2-1, 2-2) after 3 days on control plates (mock) or on plates containing 250 µM 7dSh. (B) As in (A) but the root length was quantified. n = 10 different, lower case letters mean statistically significant differences between the data sets (ANOVA test). (C) Subcellular localization of EGFP-tagged AtDHQS1 (lines 1-1 and 1-2) or EGFP-tagged AtDHQS2 (lines 2-1 and 2-2) in chloroplasts (red fluorescence) of 3-days-old transgenic Arabidopsis plants. […] (Left) relative AtDHQS1 transcript levels in the indicated transgenic Arabidopsis lines as determined by qRT-PCR using AtDHQS1 gene-specific primers. AtDHQS1 transcript levels are about ten times higher than in wild type (Col-0). (Right) relative AtDHQS2 transcript levels in the indicated transgenic Arabidopsis lines as determined by qRT-PCR using AtDHQS2 gene-specific primers. […]

[2] = tested on: Arabidopsis thaliana, Brassica napus and Hordeum vulgare seedlings; test: sedoheptulose accumulation in seedling extracts after exposure; format: in vivo; details: extracts after exposure of seedlings of the three species
From the text: The finding that AtDHQS1 is not the target of 7dSh, but that the overexpression of AtDHQS1 (-GFP) causes partial tolerance to 7dSh in Arabidopsis seems contradictory, and is in stark contrast to the findings of the prior art. Without being bound to theory, overexpression of AtDHQS1 could lead to a metabolic imbalance in the plant, and thereby could indirectly influence the amount, constitution, intracellular localization, biochemical and physiological activity of counteracting enzymes or proteins, one of which potentially being the true target for 7dSh. This hypothesis is in agreement with a recent finding that a strong accumulation of sedoheptulose was detectable in the extracts after exposure of Arabidopsis thaliana, Brassica napus and Hordeum vulgare seedlings to 7dSh. The accumulation was up to 60 times higher than in the untreated seedlings of the three species. Sedoheptulose is a ketoheptose - a monosaccharide with seven carbon atoms and a ketone functional group and one of the few heptoses found in nature. Sedoheptulose is not a metabolite of the shikimate pathway and can in no way serve as substrate for AtDHQS1.

[3] = target: T2, pAtDHQS1 (Arabidopsis thaliana, UniProt Q8VYV7); test: enzymatic assay with purified recombinant AtDHQS1 still containing the transit peptide; format: biochemical; details: 100 to 1000 µM; 50 ng purified recombinant enzyme; Figure 1B
T2 construct: a version that still has the 61 amino acid long transit peptide for plastid import (pAtDHQS1); (His)6 (C); made in house; host or cells: E. coli
T2 sequence (Q8VYV7 59-442): T1 sequence (Q8VYV7 59-442)
Experimental: (§2) (A) Schematic representation of mDHSQ1 and pDHQS1 both containing a C-terminal (His)6 tag for purification after heterologous expression of the recombinant proteins in E.coli. aa: amino acid. (B) Relative activity of mDHQS1 (left) and pDHQS1 (right) in the presence of the indicated concentrations of 7dSh. The activity in the absence of 7dSh was set to 1. […] (A) MST fluorescence spectrum of RED dye-labelled mAtDHQS1 (50 nM) in the absence of DAHP (blue line, marked as line 1) or in the presence of 500 µM DAHP (green line, marked as line 2). […] (B) MST fluorescence spectrum of RED dye-labelled mAtDHQS1 (50 nM) in the absence of 7dSh (blue line marked as line 1) or in the presence of 500 µM 7dSh (green line marked as line 2). […] (C) MST fluorescence spectrum of RED dye-labelled mAtDHQS1 (50 nM) in the absence of 7dSh and DAHP (blue line, marked as line 1), in the presence of 250 µM DAHP (green line marked as line 2) or 250 µM DAHP and 250 µM 7dSh (red line marked as line 3). […] (B) As in (A) but the root length was quantified. n = 10 different, lower case letters mean statistically significant differences between the data sets (ANOVA test). (C) Subcellular localization of EGFP-tagged AtDHQS1 (lines 1-1 and 1-2) or EGFP-tagged AtDHQS2 (lines 2-1 and 2-2) in chloroplasts (red fluorescence) of 3-days-old transgenic Arabidopsis plants. […]

[4] = tested on: Arabidopsis wild type seedlings or transgenic lines overexpressing AtDHQS1-GFP or AtDHQS2-GFP; test: comparative root growth experiments on growth medium; format: in vivo, Arabidopsis thaliana; details: 250 µM
Experimental: as §1

[5] = target: T1, mAtDHQS1; test: enzymatic assay with purified recombinant mature AtDHQS1; format: biochemical; details: 100 to 1000 µM; 50 ng purified recombinant enzyme; Figure 1B
Experimental: as §2

[6] = tested on: thale cress (Arabidopsis thaliana), rapeseed/canola (Brassica napus), barley (Hordeum vulgare), maize (Zea mays), red-root amaranth (Amaranthus retroflexus) …; test: herbicidal effect in growth medium on model and crop plants and weeds (root growth); format: in vivo; details: tested in parallel
[7] = substrate: O=C(O)C(=O)C[C@@H](O)[C@H](O)[C@H](O)COP(=O)(O)O; test: enzymatic assay with purified recombinant mature AtDHQS1; format: biochemical, Arabidopsis thaliana; details: other: substrate DAHP; mAtDHQS1
Experimental: as §2

[8] = substrate: O=C(O)C(=O)C[C@@H](O)[C@H](O)[C@H](O)COP(=O)(O)O; test: enzymatic assay with purified recombinant AtDHQS1 still containing the transit peptide; format: biochemical, Arabidopsis thaliana; details: other: substrate DAHP; pAtDHQS1
Experimental: as §2

[9] = 3-days-old seedlings, two independent lines

## C[C@@H](O)[C@@H](O)[C@@H](O)[C@H](O)C(=O)CO [7dSh, 7-deoxy-sedoheptulose]
[1]; RED dye-labelled mAtDHQS1 (50 nM), 250 µM DAHP and 250 µM 7dSh, Fig. 2 C
  competition with DAHP for binding to mAtDHQS1 (MST): no competition; also recorded: not able to displace DAHP
[1]; RED dye-labelled mAtDHQS1 (50 nM), 500 µM ligand, Fig. 2 A/B
  binding to mAtDHQS1 (MST): no binding; also recorded: no interaction
[2]
  accumulation of sedoheptulose: up to 60 times higher than in the untreated seedlings
[3]
  effect on the activity of pAtDHQS1: not inhibited; also recorded: no effect
[4]; 3-days-old Arabidopsis wild type (Col-0) seedlings, 3 days
  root growth of wild type seedlings: completely inhibited
[4]; [9]
  tolerance of seedlings of AtDHQS2-GFP transgenic lines: no tolerance
  tolerance of seedlings of transgenic lines overexpressing AtDHQS1-GFP: partial but not complete tolerance
[5]
  effect on the activity of mAtDHQS1: not inhibited; also recorded: no effect

## O=C(O)CNCP(=O)(O)O [glyphosate]
[6]
  effective concentrations compared with 7dSh: comparable

## O=C(O)C(=O)C[C@@H](O)[C@H](O)[C@H](O)COP(=O)(O)O [DAHP, 3-deoxy-D-arabino-heptulosonate-7-phosphate, reference compound]
[1]
  Kd: 33 µM

B1: mAtDHQS1 (Arabidopsis thaliana) (protein)
chain: T1 sequence (Q8VYV7 59-442)
notes: The mature i.e. biologically relevant enzyme (mAtDHQS1) with 381 amino acids; (His)6 (C); made in house; host or cells: E. coli
[7]
  Km: 8.3 µM

B2: pAtDHQS1 (Arabidopsis thaliana) (protein)
chain: T1 sequence (Q8VYV7 59-442)
notes: a version that still has the 61 amino acid long transit peptide for plastid import (pAtDHQS1); (His)6 (C); made in house; host or cells: E. coli
[8]
  Km: 2.9 µM

Reference: patent EP4516912A1, “HERBICIDE RESISTANT PLANTS” (Eberhard-Karls-Universität Tübingen, priority 2023, dated 2025)
